Test results taken from patent US8895623B2 (priority 2011, dated 2014).
Read-outs that look alike come from different tables or passages of the source.

What was measured:
thrombocytes [1] = assay: conjugation in thrombocytes in presence of biogenic amine transport inhibitors
[2] = pharmacokinetics after intravenous administration in humans; type: in vivo; details: for initial plasma concentrations: after intravenous administrations of equal doses, comparison of enantiomers; for elimination halftime: in humans, intravenous administration
Procedure: On examination of the pharmacokinetics of the two compounds after intravenous administration, it became clear that the rate of elimination of 3-[(1S,2S)-3-(dimethylamino)-1-ethyl-2-methylpropyl]phenol was much higher than that of 3-[(1R,2R)-3-(dimethylamino)-1-ethyl-2-methylpropyl]phenol, and higher even than could be explained on clearance of the total hepatic blood flow. […] In fact, the elimination halftime of 3-[(1S,2S)-3-(dimethylamino)-1-ethyl-2-methylpropyl]phenol was ca. 0.75 h.

[3] = loss of compound on incubation in heparinised whole human blood; type: in vitro ADME; details: for loss of added compound: whole human blood
Source text: The remaining possibility was that the high clearance was due to a stereo-selective biochemical process occurring in blood itself. If true, then it would be expected that 3-[(1S,2S)-3-(dimethylamino)-1-ethyl-2-methylpropyl]phenol, but not 3-[(1R,2R)-3-(dimethylamino)-1-ethyl-2-methylpropyl]phenol, would be metabolised in a time-, concentration-, and temperature-dependent manner by whole human blood.
To test the hypothesis, blood was withdrawn from healthy volunteers, heparinised (final heparin concentration, 15 U/ml), and spiked with 1 μM 3-[(1S,2S)-3-(dimethylamino)-1-ethyl-2-methylpropyl]phenol or 3-[(1R,2R)-3-(dimethylamino)-1-ethyl-2-methylpropyl]phenol. It was mixed on a rotary mixer at 37° C. in closed test-tubes. The rate of loss of the added compounds was determined by taking aliquots at regular intervals, centrifuging at 5000 g for 5 minutes, and analysing the supernatant.
Supernatants were alkalinized by addition of aqueous 25% ammonia (50 μl/ml plasma), spiked with an internal standard, and extracted twice with tertiary butyl methyl ether (2 ml per ml plasma). The ether layers were combined and dried in a stream of nitrogen before being reconstituted in 150 μl chromatography buffer (see below).
All assay supernatants were analysed by reversed-phase HPLC on a Inertsil 5 ODS 2 column (250×4.6 mm). The HPLC system consisted of equipment from Dionex or Gynkotek. The auto-sampler was a GINA 50T unit (Gynkotek); the pump system was type P580A LPG (Gynkotek); the column was thermostatted at 30° C. using a SHT 585 unit (Gynkotek). Effluents were generally monitored for fluorescence emission at 300 nm after excitation at 215 nm using a RF 2000 detector (Dionex); the wavelengths for excitation and emission were chosen to be optimal for 3-[(1S,2S)-3-(dimethylamino)-1-ethyl-2-methylpropyl]phenol or 3-[(1R,2R)-3-(dimethylamino)-1-ethyl-2-methylpropyl]-phenol. Chromatograms were evaluated using Chromeleon software version 6.11 (Dionex).
Generally, the samples were eluted using an isocratic solvent mixture. Sodium pentane-sulphonate was dissolved at 1.92 g/l (10 mM)=PSS; perchloric acid (PA) was 60% w/v. A mixture containing 900 ml PSS, 210 ml methanol, 80 ml tetrahydrofuran, and 0.1 ml PA was made, allowed to stand overnight, and degassed prior to passage over the column. The effluent was passed first through the UV detector, and then into the fluorescence detector.

[4] = rate of microsomal oxidation in vitro; type: in vitro ADME; details: hepatic microsomes
Source text: The probability of different routes of metabolic clearance in vivo can be investigated by estimating the rates of the underlying oxidation or conjugation reactions in vitro using sub-cellular fractions such as hepatic microsomes. Because the rate of microsomal oxidation of 3-[(1S,2S)-3-(dimethylamino)-1-ethyl-2-methylpropyl]phenol could be shown to be very low, it was considered that oxidative metabolism was unlikely to be a significant metabolic clearance route for this molecule.

[5] = in humans, known value; cited from earlier work
male Sprague Dawley rats = assay: low intensity tail-flick test after intrathecal administration; type: in vivo, rat; details: intrathecal (i.t.) 3.15 μg/animal, 20 min p. appl., mean±s.e.m., n=10
Procedure: Antinociceptive effects of 3-[(1S,2S)-3-(dimethylamino)-1-ethyl-2-methylpropyl]-phenol were evaluated in the low intensity tail-flick test after local drug application into the spinal cord of rats.
160 male Sprague Dawley rats (200 to 260 g body weight) from a commercial breeder (Janvier, Le Genest St Isle, France) were housed under standardized conditions: light/dark rhythm (06.00-18.00 h light, 18.00-06.00 h dark); room temperature 20-24° C.; relative air humidity 35-70%; 15 air changes per hour, air movement <0.2 m/sec. The animals were given water and feedstuff designed for rats/mice/hamsters from Nohrlin (Bad Salzuflen, FRG) ad libitum. They were kept in groups of six in Makrolon cages type 4. There were at least 5 days between the day of delivery and the day of testing.
The experiments were performed using a Tail-flick device from Rhema-Labortechnik (Hofheim/Ts., FRG). Before and after drug application, a radiant heat beam was focused onto the dorsal surface of the rat's tail about 2 to 4 cm apart from the root. […] The latency from switching on the lamp to tail withdrawal was measured. […]
The individual latencies were calculated as the percentage of the Maximum Possible Effect (% MPE) according to the following formula: % MPE=(latency−VTM)/(30sec−VTM)*100% VTM: mean pre-test value, 30 sec: cut off value.
Data were expressed as mean±s.e.m. of the respective animal group.

thrombocytes [6] = assay: incubation in thrombocyte-enriched plasma (sulphation by thrombocytes); type: in vitro ADME, human
Procedure: Thrombocyte (platelet-)enriched plasma can be prepared by centrifuging blood at 400 g for 10 minutes as this precipitates larger cells (erythrocytes, leukocytes).

stability to plasma = type: in vitro ADME
Source text: Blood consists of plasma, plasma enzymes, and various blood cell types (erythrocytes, leukocytes, thrombocytes etc). 3-[(1S,2S)-3-(dimethylamino)-1-ethyl-2-methylpropyl]phenol was expected, and proven, to be stable to plasma. Of the blood cell types, thrombocytes (platelets) were expected to have the highest relevant enzymatic activity in SULT1A3, a sulphotransferase.

[7] = oral bioavailability in humans; type: in vivo
Source text: The principal route of metabolic clearance of 3-[(1R,2R)-3-(dimethylamino)-1-ethyl-2-methylpropyl]phenol in most species, including humans, is glucuronidation, and this route was therefore considered to be very likely to be dominant for 3-[(1S,2S)-3-(dimethylamino)-1-ethyl-2-methylpropyl]phenol as well.

Q: Which “accumulation in pelleted thrombocytes” value (thrombocytes [1]; under any condition) does the source give for `CC[C@H](c1cccc(OS(=O)(=O)O)c1)[C@H](C)CN(C)C` [3-[(1S,2S)-3-(dimethylamino)-1-ethyl-2-methylpropyl]phenol-sulphate] here?
A: no accumulation

Q: Which initial plasma concentrations [2] does the source give for `CC[C@@H](c1cccc(O)c1)[C@@H](C)CN(C)C` [(-)-(1R,2R)-3-(3-dimethylamino-1-ethyl-2-methyl-propyl)-phenol, reference compound] here?
A: essentially identical

Q: What about the elimination halftime [2] of the same molecule?
A: ca. 3.2 h

Q: What about the “loss of added compound” value ([3]; 1 μM, 37° C., over one hour) of the same molecule?
A: No loss

Q: And the “rate of microsomal oxidation” value [4]?
A: similarly low

Q: And the oral bioavailability [5]?
A: ca. 33%

Q: Which initial plasma concentrations [2] does the source give for `CC[C@H](c1cccc(O)c1)[C@H](C)CN(C)C` [3-[(1S,2S)-3-(dimethylamino)-1-ethyl-2-methylpropyl]phenol] here?
A: essentially identical

Q: And the “clearance relative to hepatic blood flow” value ([2]; humans, explains short elimination halftime)?
A: 5 fold the hepatic blood flow

Q: And the elimination halftime [2]?
A: ca. 0.75 h

Q: And the maximum antinociceptive effect (male Sprague Dawley rats)?
A: 59.71±2.94 % MPE

Q: What about the “concentration above which clearance process is saturable” value ([3]; whole blood, net losses sub-linear) of the same molecule?
A: above 2 μM

Q: And the “loss of added compound” value ([3]; 1 μM, 37° C., over one hour)?
A: 35%

Q: What about the “loss of added compound” value ([3]; 6° C.) of the same molecule?
A: no loss

Q: And the “loss of added compound” value ([3]; room temperature (24° C.))?
A: 7%

Q: What about the “rate of conjugation in presence of transport inhibitors” value (thrombocytes [1]; cocaine 10 μM, nomifensin 10 μM, amphetamine 100 μM, fluoxetine 10 μM, desipramine 100 μM) of the same molecule?
A: influenced neither

Q: And the Km (thrombocytes [6]; estimated from concentration dependency of the reaction rate, read-out: Km of the process)?
A: 3.5 µM

Q: And the “loss on incubation in thrombocyte-enriched plasma” value (thrombocytes [6]; thrombocyte-enriched plasma from a given volume of blood, compared with whole blood)?
A: equivalent to that observed on incubation in the original volume of whole blood

Q: What about the stability to plasma (stability to plasma) of the same molecule?
A: stable

Q: What about the “rate of microsomal oxidation” value [4] of the same molecule?
A: very low

Q: What about the oral bioavailability [7] of the same molecule?
A: effectively zero

Q: What about the “oral bioavailability or intravenous bioavailability” value [7] of the same molecule?
A: no relevant oral bioavailability or intravenous bioavailability

Q: Which “reaction products after incubation” value (thrombocytes [6]; whole blood or thrombocyte-enriched plasma, eluted identically to synthetic sulphate on HPLC) does the source give for `CC[C@H](c1ccc[14c](O)c1)[C@H](C)CN(C)C` [14C-3-[(1S,2S)-3-(dimethylamino)-1-ethyl-2-methylpropyl]phenol] here?
A: only a single reaction product
